This is an account of results in EP0402717A1, “5-nitro-tetrahydropyrimidines and insecticides containing them for agricultural uses” (NIHON BAYER AGROCHEM K.K., priority 1989, dated 1990).

Assay type in all cases: in vivo
In assay [1] the test system is Sogatella furcifera Horvath. Description: Test on plant hoppers (spray on rice plants), white-backed rice planthopper. Conditions: 48 h, read-out: Mortality (%) Whight bached rice planthopper. As for the experimental part: (§1) A water dilution in a predetermined concentration of the active compound prepared as in Example 4 was sprayed onto rice plants, about 10 cm tall, grown in pots with a diameter of 12 cm in an amount of 10 ml per pot. The sprayed chemical was dried, and a wire net, 7 cm in diameter and 14 cm tall, was put over each of the pots. […] The mortality was then calculated.
(§2) In the same way as above, the mortality was calculated on Sogatella furcifera Horvath and organophosphorus-resistant Laodelphax striatellus Fallen.

Assay [2] deals with Laodelphax striatellus Fallen. Description: Test on plant hoppers (spray on rice plants), small brown planthopper. Conditions: 48 h, read-out: Mortality (%) Small brown planthopper. The protocol:
as §1, §2

For assay [3], the system named is NiIaparvata lugens Stal. Description: Test on plant hoppers (spray on rice plants), brown rice planthopper. Conditions: 48 h, read-out: Mortality (%) Brown rice planthopper. The protocol:
as §1

One may read the mortality as the percentage killed. As to `CNC1=C([N+](=O)[O-])CN(C)CN1Cc1ccc(Cl)nc1` [Compound 8], the mortality at 500 ppm in assay [1], in assay [2] and in assay [3] was 100% each time.

Regarding `CCCCCCCCCCCCN1CC([N+](=O)[O-])=C(NC)N(Cc2ccc(Cl)nc2)C1` [Compound 41], the mortality at 500 ppm in assay [1], in assay [2] and in assay [3] was 100% in each case.

With `CN1CCN2C(=O)CCC([N+](=O)[O-])=C12` [Compound C-1], the mortality at 500 ppm in assay [1], in assay [2] and in assay [3] was 0% throughout.

For the molecule `O=c1[nH]c(=O)n2c(c1[N+](=O)[O-])NCC2` [Compound C-2], the mortality at 500 ppm in assay [1], in assay [2] and in assay [3] was 0% throughout.
